The source made the active and inactive calls. No rule for the calls is given here.
System: CCRIS mutagenicity, Ames/micronucleus/aberration tests
Assay: CCRIS mutagenicity studies
[1] = Test System: AMES SALMONELLA TYPHIMURIUM, Strain/Indicator: TA98, Metabolic Activation: RAT, LIVER, S-9, AROCLOR 1254, Method: STANDARD PLATE
[2] = Test System: AMES SALMONELLA TYPHIMURIUM, Strain/Indicator: TA100, Metabolic Activation: RAT, LIVER, S-9, AROCLOR 1254, Method: STANDARD PLATE
[3] = Test System: AMES SALMONELLA TYPHIMURIUM, Strain/Indicator: TA98, Metabolic Activation: NONE, Method: STANDARD PLATE
[4] = Test System: AMES SALMONELLA TYPHIMURIUM, Strain/Indicator: TA100, Metabolic Activation: NONE, Method: PREINCUBATION
[5] = Test System: AMES SALMONELLA TYPHIMURIUM, Strain/Indicator: TA100, Metabolic Activation: NONE, Method: STANDARD PLATE
[6] = Test System: AMES SALMONELLA TYPHIMURIUM, Strain/Indicator: TA100, Metabolic Activation: RAT, LIVER, S-9, AROCLOR 1254, Method: PREINCUBATION
[7] = Test System: AMES SALMONELLA TYPHIMURIUM, Strain/Indicator: TA97, Metabolic Activation: HAMSTER, LIVER, S-9, AROCLOR 1254 (10 OR 30%), Method: PREINCUBATION
[8] = Test System: AMES SALMONELLA TYPHIMURIUM, Strain/Indicator: TA97, Metabolic Activation: NONE, Method: PREINCUBATION
[9] = Test System: AMES SALMONELLA TYPHIMURIUM, Strain/Indicator: TA97, Metabolic Activation: RAT, LIVER, S-9, AROCLOR 1254 (10 OR 30%), Method: PREINCUBATION
[10] = Test System: AMES SALMONELLA TYPHIMURIUM, Strain/Indicator: TA98, Metabolic Activation: HAMSTER, LIVER, S-9, AROCLOR 1254 (10 OR 30%), Method: PREINCUBATION
[11] = Test System: AMES SALMONELLA TYPHIMURIUM, Strain/Indicator: TA98, Metabolic Activation: NONE, Method: PREINCUBATION
[12] = Test System: AMES SALMONELLA TYPHIMURIUM, Strain/Indicator: TA98, Metabolic Activation: RAT, LIVER, S-9, AROCLOR 1254 (10 OR 30%), Method: PREINCUBATION
[13] = Test System: AMES SALMONELLA TYPHIMURIUM, Strain/Indicator: TA100, Metabolic Activation: HAMSTER, LIVER, S-9, AROCLOR 1254 (10 OR 30%), Method: PREINCUBATION
[14] = Test System: AMES SALMONELLA TYPHIMURIUM, Strain/Indicator: TA100, Metabolic Activation: RAT, LIVER, S-9, AROCLOR 1254 (10 OR 30%), Method: PREINCUBATION
[15] = Test System: AMES SALMONELLA TYPHIMURIUM, Strain/Indicator: TA1535, Metabolic Activation: HAMSTER, LIVER, S-9, AROCLOR 1254 (10 OR 30%), Method: PREINCUBATION
[16] = Test System: AMES SALMONELLA TYPHIMURIUM, Strain/Indicator: TA1535, Metabolic Activation: NONE, Method: PREINCUBATION
[17] = Test System: AMES SALMONELLA TYPHIMURIUM, Strain/Indicator: TA1535, Metabolic Activation: RAT, LIVER, S-9, AROCLOR 1254 (10 OR 30%), Method: PREINCUBATION

CC(=O)N[C@@H](CC(=O)O)C(=O)O was tested, and the mutagenic call (End Point: In vivo micronucleus, Test System: Bone marrow erythrocytes, Species: Mouse, Strain/Sex: Crl:CD1 (ICR)/Male and female, Route: Oral) was “inactive; negative”, the mutagenic call (Test System: Ames Salmonella typhimurium, Strain/Indicator: TA98, Metabolic Activation: None, Method: Standard plate) was “inactive; negative” and the mutagenic call (Test System: Ames Salmonella typhimurium, Strain/Indicator: TA98, Metabolic Activation: Rat, Liver, S-9, Aroclor 1254 (10%), Method: Standard plate) was “inactive; negative”. The mutagenic call (Test System: Ames Salmonella typhimurium, Strain/Indicator: TA100, Metabolic Activation: None, Method: Standard plate) was “inactive; negative”, the mutagenic call (Test System: Ames Salmonella typhimurium, Strain/Indicator: TA100, Metabolic Activation: Rat, Liver, S-9, Aroclor 1254 (10%), Method: Standard plate) was “inactive; negative” and the mutagenic call (Test System: Ames Salmonella typhimurium, Strain/Indicator: TA1535, Metabolic Activation: None, Method: Standard plate) was “inactive; negative”. The mutagenic call (Test System: Ames Salmonella typhimurium, Strain/Indicator: TA1535, Metabolic Activation: Rat, Liver, S-9, Aroclor 1254 (10%), Method: Standard plate) was “inactive; negative”, the mutagenic call (Test System: Ames Salmonella typhimurium, Strain/Indicator: TA1537, Metabolic Activation: None, Method: Standard plate) was “inactive; negative” and the mutagenic call (Test System: Ames Salmonella typhimurium, Strain/Indicator: TA1537, Metabolic Activation: Rat, Liver, S-9, Aroclor 1254 (10%), Method: Standard plate) was “inactive; negative”. The mutagenic call (Test System: E. coli, Strain/Indicator: WP2 uvrA, Metabolic Activation: None, Method: Standard plate) was “inactive; negative” and the mutagenic call (Test System: E. coli, Strain/Indicator: WP2 uvrA, Metabolic Activation: Rat, Liver, S-9, Aroclor 1254 (10%), Method: Standard plate) was “inactive; negative”.

For CC(=O)Nc1ccc2c(c1)Cc1cccc(O)c1-2, the mutagenic call [1] was “active; positive”, the mutagenic call [2] was “active; positive” and the mutagenic call (Test System: AMES SALMONELLA TYPHIMURIUM, Strain/Indicator: TA1538, Metabolic Activation: RAT, LIVER, S-9, AROCLOR 1254, Method: STANDARD PLATE) was “active; positive”.

In the case of C=C1C[C@@]23CC[C@H]4[C@@](C)(CCC[C@@]4(C)C(=O)O)[C@@H]2CC[C@]1(O[C@@H]1O[C@H](CO)[C@@H](O)[C@H](O)[C@H]1O)C3, the mutagenic call (Test System: AMES SALMONELLA TYPHIMURIUM, Strain/Indicator: TM677, Metabolic Activation: RAT, LIVER, S-9, AROCLOR 1254, Method: PREINCUBATION) is reported as “active; positive”.

In the case of O=C/C=C/c1ccc([N+](=O)[O-])cc1, the mutagenic call (Test System: AMES SALMONELLA TYPHIMURIUM, Strain/Indicator: TA98, Metabolic Activation: HAMSTER, LIVER, S-9, AROCLOR 1254, Method: STANDARD PLATE) is reported as “active; positive”, the mutagenic call [3] is reported as “active; positive” and the mutagenic call [1] is reported as “active; positive”. For the same compound, the mutagenic call (Test System: AMES SALMONELLA TYPHIMURIUM, Strain/Indicator: TA100(1,8-DNP6), Metabolic Activation: NONE, Method: PREINCUBATION) was “active; positive”, the mutagenic call (Test System: AMES SALMONELLA TYPHIMURIUM, Strain/Indicator: TA100(1,8-DNP6), Metabolic Activation: RAT, LIVER, S-9, AROCLOR 1254, Method: PREINCUBATION) was “active; positive” and the mutagenic call (Test System: AMES SALMONELLA TYPHIMURIUM, Strain/Indicator: TA100(NR), Metabolic Activation: NONE, Method: PREINCUBATION) was “inactive; negative”. The mutagenic call (Test System: AMES SALMONELLA TYPHIMURIUM, Strain/Indicator: TA100(NR), Metabolic Activation: RAT, LIVER, S-9, AROCLOR 1254, Method: PREINCUBATION) was “active; positive”, the mutagenic call (Test System: AMES SALMONELLA TYPHIMURIUM, Strain/Indicator: TA100, Metabolic Activation: HAMSTER, LIVER, S-9, AROCLOR 1254, Method: STANDARD PLATE) was “active; positive” and the mutagenic call [4] was “active; positive”. The mutagenic call [5] was “active; positive”, the mutagenic call [6] was “active; positive” and the mutagenic call [2] was “active; positive”. The mutagenic call (Test System: MOUSE LYMPHOMA, Strain/Indicator: L5178Y (TK+/TK-), Metabolic Activation: NONE, Method: SUSPENSION/PLATE) was “active; positive. reevaluation of results: positive” and the mutagenic call (Test System: MOUSE LYMPHOMA, Strain/Indicator: L5178Y (TK+/TK-), Metabolic Activation: RAT, LIVER, S-9, AROCLOR 1254, Method: SUSPENSION/PLATE) was “inactive; negative. reevaluation of results: negative”.

For O=C(Nc1cccc(F)c1)c1csc([N+](=O)[O-])c1, the mutagenic call [3] was “active; positive” and the mutagenic call [5] was “active; positive”.

With CCCCCCCCCC the mutagenic call [7] was “inactive; negative”, the mutagenic call [8] was “inactive; negative” and the mutagenic call (Test System: AMES SALMONELLA TYPHIMURIUM, Strain/Indicator: TA97, Metabolic Activation: RAT, LIVER, S-9, AROCLOR 1254 (5%), Method: PREINCUBATION) was “inactive; negative”. The mutagenic call [9] was “inactive; negative”, the mutagenic call [10] was “inactive; negative” and the mutagenic call [11] was “inactive; negative”. The mutagenic call [12] was “inactive; negative”, the mutagenic call [13] was “inactive; negative” and the mutagenic call [4] was “inactive; negative”. The mutagenic call [14] was “inactive; negative”, the mutagenic call [15] was “inactive; negative” and the mutagenic call [16] was “inactive; negative”. For the same compound, the mutagenic call [17] was “inactive; negative”, the mutagenic call (Test System: AMES SALMONELLA TYPHIMURIUM, Strain/Indicator: TA1537, Metabolic Activation: HAMSTER, LIVER, S-9, AROCLOR 1254 (30%), Method: PREINCUBATION) was “inactive; negative” and the mutagenic call (Test System: AMES SALMONELLA TYPHIMURIUM, Strain/Indicator: TA1537, Metabolic Activation: NONE, Method: PREINCUBATION) was “inactive; negative”. The mutagenic call (Test System: AMES SALMONELLA TYPHIMURIUM, Strain/Indicator: TA1537, Metabolic Activation: RAT, LIVER, S-9, AROCLOR 1254 (5 OR 10%), Method: PREINCUBATION) was “inactive; negative” and the mutagenic call (Test System: AMES SALMONELLA TYPHIMURIUM, Strain/Indicator: TA1537, Metabolic Activation: RAT, LIVER, S-9, AROCLOR 1254 (30%), Method: PREINCUBATION) was “inactive; negative”.

In the case of Fc1ccc2c3c(ccc2c1)-c1cccc2cccc-3c12, the mutagenic call (Test System: AMES SALMONELLA TYPHIMURIUM, Strain/Indicator: TA97A, Metabolic Activation: RAT, LIVER, S-9, AROCLOR 1254, Method: PREINCUBATION) is reported as “active; positive”, the mutagenic call (Test System: AMES SALMONELLA TYPHIMURIUM, Strain/Indicator: TA98, Metabolic Activation: RAT, LIVER, S-9, AROCLOR 1254, Method: PREINCUBATION) is reported as “active; positive” and the mutagenic call [6] is reported as “active; positive”.

For Clc1c(Cl)c(Cl)c2c(c1Cl)Oc1c(Cl)c(Cl)c(Cl)c(Cl)c1O2, the mutagenic call [7] was “inactive; negative”, the mutagenic call [8] was “inactive; negative” and the mutagenic call [9] was “inactive; negative”. The mutagenic call [10] was “inactive; negative”, the mutagenic call [11] was “inactive; negative” and the mutagenic call [12] was “inactive; negative”. The mutagenic call [13] was “inactive; negative”, the mutagenic call [4] was “inactive; negative” and the mutagenic call [14] was “inactive; negative”. For the same compound, the mutagenic call [15] was “inactive; negative”, the mutagenic call [16] was “inactive; negative” and the mutagenic call [17] was “inactive; negative”.

From PubChem BioAssay AID1259407 (Chemical Carcinogenesis Research Information System (CCRIS), 2018)
